{
  "source": "patent US12084472B2",
  "about": "(Ardelyx, Inc., priority 2015, dated 2024)",
  "data": [
    {"target": "T1, human TGR5 (Homo sapiens, UniProt Q8TDU6)", "T1 construct": "expressed in transfected cells; host or cells: HEK293", "T1 sequence (Q8TDU6 1-330)": "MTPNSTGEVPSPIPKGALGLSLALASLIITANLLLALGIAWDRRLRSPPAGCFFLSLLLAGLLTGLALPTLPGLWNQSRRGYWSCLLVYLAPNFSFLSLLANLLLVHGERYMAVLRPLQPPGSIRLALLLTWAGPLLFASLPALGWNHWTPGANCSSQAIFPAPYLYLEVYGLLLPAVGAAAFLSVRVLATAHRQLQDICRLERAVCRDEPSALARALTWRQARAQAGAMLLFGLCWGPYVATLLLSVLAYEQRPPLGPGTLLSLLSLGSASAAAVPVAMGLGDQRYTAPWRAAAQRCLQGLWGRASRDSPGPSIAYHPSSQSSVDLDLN", "assay": "Cell-based TGR5 assay (cAMP generation, HTRF)", "conditions": "HEK293 cells stably transfected with human TGR5; cAMP by HTRF; 30 minutes at 37° C.; read-out: pEC50 Human TGR5 (converted)", "procedure,_shortened": "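Read-out was HTRF detection of cAMP, converted to concentration via a standard curve and fitted (3-parameter logistic) for pEC50 and maximal response. Agonist stimulation used HEK293 cells stably transfected with human TGR5, incubated 30 min at 37° C in IBMX-containing buffer at 0.05 nM to 10 μM compound.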", "units": {"EC50": "µM"}, "values": [
      {"smiles": "O[C@@H]1COC[C@H]1Oc1ccccc1-c1ccncc1C1(NCc2cc(Cl)ccc2Cl)CC1", "note": "[Compound I-22, (3R,4R)-4-{2-[3-(1-{[(2,5-dichlorophenyl)methyl]amino}cyclopropyl)pyridin-4-yl]phenoxy}oxolan-3-ol]", "EC50": "1.26 to 10"},
      {"smiles": "O=C([C@@H](O)[C@@H](O)[C@H](O)[C@@H](O)CO)N(CCCSc1ccc(Cl)c(COC2(c3cnccc3-c3ccccc3OC3CC3)CC2)c1)CCOCCO", "note": "[Compound I-518, (2S,3S,4R,5S)-N-(3-{[4-chloro-3-({1-[4-(2-cyclopropoxyphenyl)pyridin-3-yl]cyclopropoxy}methyl)phenyl]sulfanyl}propyl)-2,3,4,5,6-pentahydroxy-N-[2-(2-hydroxyethoxy)ethyl]hexanamide]", "EC50": "< 0.1"},
      {"smiles": "O=C(O)COCC(=O)N(CCCCc1cc(Cl)c(COC2(c3cnccc3-c3ccccc3OC3CC3)CC2)cc1Cl)C[C@H](O)[C@@H](O)[C@H](O)[C@H](O)CO", "note": "(stereo in doubt) [Compound I-186, 2-[({4-[2,5-dichloro-4-({1-[4-(2-cyclopropoxyphenyl)pyridin-3-yl]cyclopropoxy}methyl)phenyl]butyl}[(2S,3R,4R,5R)-2,3,4,5,6-pentahydroxyhexyl]carbamoyl)methoxy]acetic acid]", "EC50": "0.126 to 1"},
      {"smiles": "Cc1cc(COC2(c3cnccc3-c3ccccc3OC3CC3)CC2)c(C)cc1CCCCC(=O)NC[C@H](O)[C@@H](O)[C@H](O)[C@H](O)CO", "note": "[Compound I-229, 5-[4-({1-[4-(2-cyclopropoxyphenyl)pyridin-3-yl]cyclopropoxy}methyl)-2,5-dimethylphenyl]-N-[(2S,3R,4R,5R)-2,3,4,5,6-pentahydroxyhexyl]pentanamide]", "EC50": "< 0.1"},
      {"smiles": "NC(=O)CN(CCCCCSc1ccc(Cl)c(COC2(c3cnccc3-c3ccccc3OC3CC3)CC2)c1)C(=O)[C@@H](O)[C@@H](O)[C@H](O)[C@@H](O)CO", "note": "[Compound I-609, (2S,3S,4R,5S)-N-(carbamoylmethyl)-N-(5-{[4-chloro-3-({1-[4-(2-cyclopropoxyphenyl)pyridin-3-yl]cyclopropoxy}methyl)phenyl]sulfanyl}pentyl)-2,3,4,5,6-pentahydroxyhexanamide]", "EC50": "< 0.1"},
      {"smiles": "CS(=O)(=O)CCN(C[C@H](O)[C@@H](O)[C@H](O)[C@H](O)CO)C(=O)CCCSc1ccc(Cl)c(COC2(c3cnccc3-c3ccccc3OC3CC3)CC2)c1", "note": "[Compound I-665, 4-{[4-chloro-3-({1-[4-(2-cyclopropoxyphenyl)pyridin-3-yl]cyclopropoxy}methyl)phenyl]sulfanyl}-N-(2-methanesulfonylethyl)-N-[(2S,3R,4R,5R)-2,3,4,5,6-pentahydroxyhexyl]butanamide]", "EC50": "0.126 to 1"},
      {"smiles": "CC(CCCCN(CCOCCO)C(=O)NC[C@H](O)[C@@H](O)[C@H](O)[C@H](O)CO)c1ccc(Cl)c(CNC2(c3cnccc3-c3ccccc3OC3CC3)CC2)c1", "note": "(stereo partly drawn) [Compound I-270, 1-(5-{4-chloro-3-[({1-[4-(2-cyclopropoxyphenyl)pyridin-3-yl]cyclopropyl}amino)methyl]phenyl}hexyl)-1-[2-(2-hydroxyethoxy)ethyl]-3-[(2S,3R,4R,5R)-2,3,4,5,6-pentahydroxyhexyl]urea]", "EC50": "< 0.1"},
      {"smiles": "Cc1ccc(SCCCCN(CCCCO)C(=O)[C@@H](O)[C@@H](O)[C@H](O)[C@@H](O)CO)cc1CNC1(c2cnccc2-c2ccccc2OC2CC2)CC1", "note": "[Compound I-550, (2S,3S,4R,5S)-N-[4-({3-[({1-[4-(2-cyclopropoxyphenyl)pyridin-3-yl]cyclopropyl}amino)methyl]-4-methylphenyl}sulfanyl)butyl]-2,3,4,5,6-pentahydroxy-N-(4-hydroxybutyl)hexanamide]", "EC50": "0.126 to 1"},
      {"smiles": "O=C([C@@H](O)[C@@H](O)[C@H](O)[C@@H](O)CO)N(CCCSc1ccc(Cl)c(COC2(c3cnccc3-c3ccccc3OC3CC3)CC2)c1)CC1CCOCC1", "note": "[Compound I-522, (2S,3S,4R,5S)-N-(3-{[4-chloro-3-({1-[4-(2-cyclopropoxyphenyl)pyridin-3-yl]cyclopropoxy}methyl)phenyl]sulfanyl}propyl)-2,3,4,5,6-pentahydroxy-N-(oxan-4-ylmethyl)hexanamide]", "EC50": "0.126 to 1"},
      {"smiles": "O=C(NCCCCNS(=O)(=O)c1ccc(Cl)c(COC2(c3cnccc3-c3ccccc3OC3CC3)CC2)c1)N[C@@H](CO)[C@@H](O)[C@H](O)[C@H](O)CO", "note": "(stereo in doubt) [Compound I-410, 1-{4-[4-chloro-3-({1-[4-(2-cyclopropoxyphenyl)pyridin-3-yl]cyclopropoxy}methyl)benzenesulfonamido]butyl}-3-[(2S,3R,4S,5R)-1,3,4,5,6-pentahydroxyhexan-2-yl]urea]", "EC50": "< 0.1"},
      {"smiles": "O=C(O)CCNC(=O)N(CCCCc1cc(Cl)c(COC2(c3cnccc3-c3ccccc3OC3CC3)CC2)cc1Cl)C[C@H](O)[C@@H](O)[C@H](O)[C@H](O)CO", "note": "[Compound I-198, 3-[({4-[2,5-dichloro-4-({1-[4-(2-cyclopropoxyphenyl)pyridin-3-yl]cyclopropoxy}methyl)phenyl]butyl}[(2S,3R,4R,5R)-2,3,4,5,6-pentahydroxyhexyl]carbamoyl)amino]propanoic acid]", "EC50": "< 0.1"},
      {"smiles": "CCN(CCOCCNC(=O)NC[C@H](O)[C@@H](O)[C@H](O)[C@H](O)CO)S(=O)(=O)c1ccc(Cl)c(COC2(c3cnccc3-c3ccccc3OC3CC3)CC2)c1", "note": "[Compound I-411, 1-(2-{2-[N-ethyl4-chloro-3-({1-[4-(2-cyclopropoxyphenyl)pyridin-3-yl]cyclopropoxy}methyl)benzenesulfonamido]ethoxy}ethyl)-3-[(2S,3R,4R,5R)-2,3,4,5,6-pentahydroxyhexyl]urea]", "EC50": "< 0.1"},
      {"smiles": "CNC(=O)CN(C[C@H](O)[C@@H](O)[C@H](O)[C@H](O)CO)C(=O)CCCC(C)c1ccc(C)c(CNC2(c3cnccc3-c3ccccc3OC3CC3)CC2)c1", "note": "(stereo partly drawn) [Compound I-360, 5-{3-[({1-[4-(2-cyclopropoxyphenyl)pyridin-3-yl]cyclopropyl}amino)methyl]-4-methylphenyl}-N-[(methylcarbamoyl)methyl]-N-[(2S,3R,4R,5R)-2,3,4,5,6-pentahydroxyhexyl]hexanamide]", "EC50": "< 0.1"},
      {"smiles": "CS(=O)(=O)CCN(CCCCSc1ccc(Cl)c(CNC2(c3cnccc3-c3ccccc3OC3CC3)CC2)c1)C(=O)[C@@H](O)[C@@H](O)[C@H](O)[C@@H](O)CO", "note": "[Compound I-584, (2S,3S,4R,5S)-N-[4-({4-chloro-3-[({-[4-(2-cyclopropoxyphenyl)pyridin-3-yl]cyclopropyl}amino)methyl]phenyl}sulfanyl)butyl]-2,3,4,5,6-pentahydroxy-N-(2-methanesulfonylethyl) hexanamide]", "EC50": "< 0.1"},
      {"smiles": "COc1cccc(Cl)c1-c1ccncc1C1(OCc2cc(Cl)ccc2Cl)CC1", "note": "[Compound I-765, 4-(2-chloro-6-methoxyphenyl)-3-(1-((2,5-dichlorobenzyl)oxy)cyclopropyl)pyridine]", "EC50": "< 0.1"},
      {"smiles": "C[C@@H](CCCC(=O)NC[C@H](O)[C@@H](O)[C@H](O)[C@H](O)CO)c1ccc(Cl)c(CNC2(c3cnccc3-c3ccccc3OC3CC3)CC2)c1", "note": "(single isomer, unassigned) [Compound I-314]", "EC50": "< 0.1"},
      {"smiles": "Clc1ccc(C2CC2)cc1CNC1(c2cnccc2-c2ccccc2OC2CC2)CC1", "note": "[Compound I-31, N-[(2-chloro-5-cyclopropylphenyl)methyl]-1-[4-(2-cyclopropoxyphenyl)pyridin-3-yl]cyclopropan-1-amine]", "EC50": "< 0.1"},
      {"smiles": "CC(C)N(CCCCNC(=O)N[C@@H](CO)[C@@H](O)[C@H](O)[C@H](O)CO)S(=O)(=O)c1cc(COC2(c3cnccc3-c3ccccc3OC3CC3)CC2)c(Cl)cc1F", "note": "[Compound I-763, 4-chloro-5-((1-(4-(2-cyclopropoxyphenyl)pyridin-3-yl)cyclopropoxy)methyl)-2-fluoro-N-isopropyl-N-(4-(3-((2S,3R,4S,5R)-1,3,4,5,6-pentahydroxyhexan-2-yl)ureido)butyl) benzenesulfonamide]", "EC50": "< 0.1"},
      {"smiles": "O=C([C@@H](O)[C@@H](O)[C@H](O)[C@@H](O)CO)N(CCCSc1ccc(Cl)c(CNC2(c3cnccc3-c3ccccc3OC3CC3)CC2)c1)C1CCS(=O)(=O)CC1", "note": "[Compound I-552, (2S,3S,4R,5S)-N-[3-({4-chloro-3-[({1-[4-(2-cyclopropoxyphenyl)pyridin-3-yl]cyclopropyl}amino)methyl]phenyl}sulfanyl)propyl]-N-(1,1-dioxo-1λ^6-thian-4-yl)-2,3,4,5,6-pentahydroxyhexanamide]", "EC50": "1.26 to 10"},
      {"smiles": "Cc1ccc([C@H](C)CCCC(=O)N(C)C[C@H](O)[C@@H](O)[C@H](O)[C@H](O)CO)cc1CNC1(c2cnccc2-c2ccccc2OC2CC2)CC1", "note": "(single isomer, unassigned) [Compound I-351]", "EC50": "< 0.1"},
      {"smiles": "CC(=O)N(CCCCCSc1ccc(Cl)c(COC2(c3cnccc3-c3ccccc3OC3CC3)CC2)c1)C[C@H](O)[C@@H](O)[C@H](O)[C@H](O)CO", "note": "[Compound I-695, N-(5-{[4-chloro-3-({1-[4-(2-cyclopropoxyphenyl)pyridin-3-yl]cyclopropoxy}methyl)phenyl]sulfanyl}pentyl)-N-[(2S,3R,4R,5R)-2,3,4,5,6-pentahydroxyhexyl]acetamide]", "EC50": "< 0.1"},
      {"smiles": "CN(CCCCNC(=O)N[C@@H](CO)[C@@H](O)[C@@H](O)[C@H](O)CO)S(=O)(=O)c1ccc(Cl)c(COC2(c3cnccc3-c3ccccc3OC3CC3)CC2)c1", "note": "[Compound I-776, 4-chloro-3-((1-(4-(2-cyclopropoxyphenyl)pyridin-3-yl)cyclopropoxy)methyl)-N-methyl-N-(4-(3-((2S,3R,4R,5R)-1,3,4,5,6-pentahydroxyhexan-2-yl)ureido)butyl)benzenesulfonamide]", "EC50": "< 0.1"}
    ]}
  ]
}
